Assay [1] has as its system chick dorsal root ganglia. Kind of assay: Neurite outgrowth in chick dorsal root ganglion cultures. As to conditions: for EC50: Gallus gallus, chick DRG explants, 48 h after drug treatment, read-out: ED50, Neurite Outgrowth in DRG cultures. It counts as cell-based. The procedure:
In the present work explants of chick dorsal root ganglia have been used, which are easier to employ in studies of nerve outgrowth.
Chick Dorsal Root Ganglion Cultures and Neurite Outgrowth
Dorsal root ganglia were dissected from chick embryos of ten day gestation. Whole ganglion explants were cultured on thin layer Matrigel-coated 12 well plates with Liebovitz L15 plus high glucose media supplemented with 2 mM glutamine and 10% fetal calf serum, and also containing 10 μM cytosine β-D arabinofuranoside (Ara C) at 37° C. in an environment containing 5% CO2. Twenty-four hours later, the DRGs were treated with various concentrations of nerve growth factor, immunophilin ligands or combinations of NFG plus drugs. Forty-eight hours after drug treatment, the ganglia were visualized under phase contrast or Hoffman Modulation contrast with a Zeiss Axiovert inverted microscope. Photomicrographs of the explants were made, and neurite outgrowth was quantitated. Neurites longer than the DRG diameter were counted as positive, with total number of neurites quantitated per each experimental condition. Three to four DRGs are cultured per well, and each treatment was performed in duplicate. Data from 6-10 different concentrations were used to generate dose-response curves, from which ED50 values were calculated.

The next assay has as its system facial nerve injury. The note with it: whole animal experiments; cited from earlier work.
A further assay relates to sciatic nerve lesions. The note with it: whole animal experiments; cited from earlier work.
For the next assay, the system named is rat dorsal root ganglia. As to conditions: rat DRG explants, cited from earlier work.
Assay [2] has as its system dorsal root ganglion cells (DRGs). As to conditions: picomolar concentrations; sensory neurons; cited from earlier work.
The subject of the next assay is PC12 cells. The note with it: picomolar concentrations; cited from earlier work.
The subject of assay [3] is growth-associated protein-43 (GAP43). As to conditions: cited from earlier work.

The source of these data is patent US5801197A, “Rotamase enzyme activity inhibitors” (GPI Nil Holdings, Inc., priority 1996, dated 1998).

Turning to `COc1cc(C(=O)C(=O)N2CCCC[C@H]2C(=O)OC(CCCc2ccccc2)CCc2cccnc2)cc(OC)c1OC` (stereo partly shown) [Compound 22], the “neurite outgrowth in cultured sensory neurons (photomicrograph)” value in assay [1] (1 nM) was “responding to trophic effects”. The EC50 in assay [1] amounted to 0.95 nM. Consider `O=C(C(=O)N1CCCC[C@H]1C(=O)OCCCCc1ccccc1)c1ccccc1` [Example 4], for which the EC50 in assay [1] was in the range of 25 to 100 nM.

In the case of `COc1ccc(CCCCOC(=O)[C@@H]2CCCCN2C(=O)C(=O)c2cc(OC)c(OC)c(OC)c2)cc1` [Example 16], in assay [1], the EC50 amounted to 0.03 nM.

For `COC(=O)C(=O)N1CCCC[C@H]1C(=O)OCCCC1CCCC1` [Example 10], the EC50 in assay [1] was more than 10000 nM. On the same count and under the same terms, the result for `O=C(C(=O)N1CCCC[C@H]1C(=O)OCc1ccccc1)c1ccco1` [Example 11] reads 1000 nM. With `COc1cc(C(=O)C(=O)N2CCCC[C@H]2C(=O)OCCCc2c[nH]c3ccccc23)cc(OC)c1OC` [Example 15], the “neurite outgrowth in cultured sensory neurons (photomicrograph)” value in assay [1] (300 pM) is listed as “stimulation of neurite outgrowth”. Also, the EC50 in assay [1] stood at 0.055 nM.

`COC(=O)C(=O)N1CCCC[C@H]1C(=O)OCc1ccccc1` [Example 7]: in assay [1], the EC50 is more than 10000 nM.

Turning to `COc1cc(C(=O)C(=O)N2CCCC[C@H]2C(=O)OC(CCCc2ccccc2)CCCc2ccccn2)cc(OC)c1OC` (stereo partly shown) [Compound 23], the EC50 in assay [1] was found to be 25 nM. On the same count and under the same terms, the result for `COc1ccc(CCCCOC(=O)[C@@H]2CCCCN2C(=O)C(=O)c2ccccc2)cc1` [Example 3] reads 0.5 nM. Take `O=C(C(=O)N1CCCC[C@H]1C(=O)OC(CCCc1ccccc1)CCCc1ccccn1)c1ccccc1` (stereo partly shown) [Compound 18]: the EC50 in assay [1] was determined as 0.063 nM. Regarding `C=CC[C@@H]1/C=C(\C)C[C@H](C)C[C@H](OC)[C@H]2O[C@@](O)(C(=O)C(=O)N3CCCC[C@H]3C(=O)O[C@H](/C(C)=C/[C@@H]3CC[C@@H](O)[C@H](OC)C3)[C@H](C)[C@@H](O)CC1=O)[C@H](C)C[C@@H]2OC` [FK506], in the assay on facial nerve injury, the “nerve regeneration following facial nerve injury” value is “stimulate nerve regeneration following facial nerve injury”. In addition, the “functional recovery in animals with sciatic nerve lesions” value in the assay with sciatic nerve lesions was “functional recovery in animals with sciatic nerve lesions”. Besides, the “neurotrophic effects in the absence of NGF” value in the assay on rat dorsal root ganglia (no NGF) was “neurotrophic effects were observed”. For the same compound, the “lowest concentration with significant augmentation in nerve outgrowth” value in the assay with rat dorsal root ganglia is 1 picomolar. Moreover, the “stimulation of neurite outgrowth” value in assay [2] is “stimulate neurite out growth in PC12 cells and sensory neurons”; in the assay with PC12 cells, “stimulate neurite out growth in PC12 cells”. Also, the “phosphorylation of GAP43” value in assay [3] was “augments the phosphorylation”. Turning to `O=C(C(=O)N1CCCC[C@H]1C(=O)OCc1ccccc1)c1ccccc1` [Example 1], in assay [1], the EC50 was 25 to 100 nM.

On to `COc1cc(C(=O)C(=O)N2CCCC[C@H]2C(=O)OC(CCCc2ccccc2)CCCc2ccccc2)cc(OC)c1OC` [Compound 21], for which the “dose-dependence of neurotrophic effects in neuronal cultures” value in assay [1] (FIG. 3, cultured sensory neurons) is reported as “dose-dependent neurotrophic effects”. In addition, the EC50 in assay [1] amounted to 0.61 nM. With `COc1cc(C(=O)C(=O)N2CCCC[C@H]2C(=O)OCCCCc2ccccc2)cc(OC)c1OC` [Example 14], the EC50 in assay [1] was in the range of 1 to 5 nM. As to `O=C(C(=O)N1CCCC[C@H]1C(=O)OC(CCCc1ccccc1)CCCc1ccccc1)c1ccccc1` [Compound 20], the EC50 in assay [1] amounted to 0.0044 nM. Still for that read-out and setting: the result for `COc1cc(C(=O)C(=O)N2CCCC[C@H]2C(=O)OCCCCC2CCCCC2)cc(OC)c1OC` [Example 12] reads 0.031 nM; that for `O=C(C(=O)N1CCCC[C@H]1C(=O)OCCCCC1CCCCC1)c1ccccc1` [Example 6], 10 to 20 nM. With `COC(=O)C(=O)N1CCCC[C@H]1C(=O)OCCCCC1CCCCC1` [Example 8], the EC50 in assay [1] was more than 10000 nM.

On to `O=C(C(=O)N1CCCC[C@H]1C(=O)OCCc1ccccc1)c1ccccc1` [Example 5], for which the EC50 in assay [1] was 25 to 100 nM. Same read-out and setting: for `COc1ccc(CCCC(CCCc2ccccc2)OC(=O)[C@@H]2CCCCN2C(=O)C(=O)c2cc(OC)c(OC)c(OC)c2)cc1` (stereo partly shown) [Compound 24] the value was 0.5 nM; for `O=C(C(=O)N1CCCC[C@H]1C(=O)OC(CCCc1ccccc1)CCCc1cccnc1)c1ccccc1` (stereo partly shown) [Compound 17], 1 to 5 nM.

For `CO[C@H]1C[C@@H]2CC[C@@H](C)[C@@](O)(O2)C(=O)C(=O)N2CCCC[C@H]2C(=O)O[C@H]([C@H](C)C[C@@H]2CC[C@@H](O)[C@H](OC)C2)CC(=O)[C@H](C)/C=C(\C)[C@@H](O)[C@@H](OC)C(=O)[C@H](C)C[C@H](C)/C=C/C=C/C=C/1C` [rapamycin], the “stimulation of neurite outgrowth” value in assay [2] is “stimulate neurite out growth in PC12 cells and sensory neurons”; in the assay with PC12 cells it was “stimulate neurite out growth in PC12 cells”. Turning to `CC(C)Oc1cccc(C(=O)C(=O)N2CCCC[C@H]2C(=O)OC(CCCc2ccccc2)CCCc2cccnc2)c1` (stereo partly shown) [Compound 25], the EC50 in assay [1] turned out to be 0.3 nM. On the same count and under the same terms, for `COc1ccc(CCC(CCCc2ccccc2)OC(=O)[C@@H]2CCCCN2C(=O)C(=O)c2ccccc2)cc1` (stereo partly shown) [Compound 19] the value was 10 to 20 nM; for `O=C(C(=O)N1CCCC[C@H]1C(=O)OCCCc1ccccc1)c1ccccc1` [Example 2], 10 to 20 nM. Turning to `COC(=O)C(=O)N1CCCC[C@H]1C(=O)OCCCC1CCCCC1` [Example 9], the EC50 in assay [1] was more than 10000 nM. Still for that read-out and setting: the result for `COc1cc(C(=O)C(=O)N2CCCC[C@H]2C(=O)OCc2cccc(Oc3ccccc3)c2)cc(OC)c1OC` [Example 13] reads 0.18 nM.
